Reference: patent publication US7875620B2, “Methods of treating microbial infections” (Piper Medical, Inc., priority 2005, dated 2011)

How the values were obtained:
Test in all cases: Growth inhibition on agar plates, crystalline material swabbed on
Type in all cases: cell-based
Escherichia coli = conditions: agar plate containing Escherichia coli
Excerpt: (§1) A chalky, white substance presumptively identified as monosodium urate monohydrate crystals was extracted from the subcutaneous area of an elbow of a patient presenting with a soft tissue gouty tophus at the elbow. […] The crystalline substance was swabbed onto agar plates containing Staphylococcus aureus, Staphylococcus pyogenes, Neisseria meningitis, Neisseria gonorrhorea, Escherichia coli, Methicillin resistant Staphylococcus aureus, Haemophilus influenza or Serratia Marcessens. The crystalline material inhibited the growth of the microorganisms as indicated below in Table 1.

Haemophilus influenza = conditions: agar plate containing Haemophilus influenza
Excerpt: as §1

[1] = tested on: Methicillin resistant Staphylococcus aureus; conditions: agar plate containing Methicillin resistant Staphylococcus aureus
Excerpt: as §1

Neisseria gonorrhorea = conditions: agar plate containing Neisseria gonorrhorea
Excerpt: as §1

Neisseria meningitis = conditions: agar plate containing Neisseria meningitis
Excerpt: as §1

Serratia Marcessens = conditions: agar plate containing Serratia Marcessens
Excerpt: as §1

Staphylococcus aureus = tested on: Staphylococcus aureus
Excerpt: as §1

Staphylococcus pyogenes = conditions: agar plate containing Staphylococcus pyogenes
Excerpt: as §1

O.O=c1[n-]c2c(=O)[nH]c(=O)[nH]c2[nH]1.[Na+] [Monosodium Urate Monohydrate, monosodium urate monohydrate]
Antimicrobial activity (growth inhibition) (Escherichia coli): Did not inhibit growth | Antimicrobial activity (growth inhibition) (Haemophilus influenza): Did not inhibit growth | Antimicrobial activity (growth inhibition) [1]: Did not inhibit growth | Antimicrobial activity (growth inhibition) (Neisseria gonorrhorea): Inhibited growth | Antimicrobial activity (growth inhibition) (Neisseria meningitis): Inhibited growth | Antimicrobial activity (growth inhibition) (Serratia Marcessens): Did not inhibit growth | bacteriocidal activity (Staphylococcus aureus; against S. aureus): exhibited bacteriocidal activity | Antimicrobial activity (growth inhibition) (Staphylococcus aureus; agar plate containing Staphylococcus aureus): Inhibited growth | Antimicrobial activity (growth inhibition) (Staphylococcus pyogenes): Inhibited growth
